Measured values: patent US6001810A, “Methods for treating retroviral infection” (Eli Lilly and Company, priority 1990, dated 1999)
≈ marks a conversion by molar mass, not a printed value. Blank lines part the entries; values can stand above or below the compound they belong to. Non-standard residues stand in square brackets, D forms with d. Residues, ends and D or L forms follow the SMILES beside them. *: point of attachment. Sta = CC(C)C[C@H](N)[C@@H](O)CC(=O)O; Isovaleryl = CC(C)CC(=O)*

What was measured:
[1] = system: CEM cells; format: cell-based
Method: Quantitative evaluation of the viral inhibition were performed on the T-cell lymphoblastoid cell lines MT-2 (Harada et al., 1985, Science 229:563-566) and CEM (Nara and Fischinger, 1988, Nature 332:469-470). The cells were infected with the HTLV-IIIB strain of HIV-1 from the supernatant fluid of infected human T-lymphocyte cell line H9 (Popovic, M. et al., 1984, Science 224:497-500). Each of these three cell lines are publicly available from the National Institutes of Health (NIH) AIDS Research and Reference Reagent Program. The H9/HTLC-IIIB cell line is available under catalogue number 231, while CEM cell line is available under catalogue number 117 and the MT-2 cell line is available under the catalogue number 237. MT-2 and CEM cells were grown in RPMI 1640 medium supplemented with 10% (v/v) fetal calf serum, 100 U/ml penicillin, 100 μg/ml streptomycin and 25 mM HEPEs buffer. H9 cells were grown in the same medium except 20% fetal calf serum was used. The peptides were diluted in the medium used for MT-2 and CEM cells. Cell cultures were maintained in disposable tissue culture labware at 37° C. in a humidified atmosphere of 5% CO2 in air.
The inhibitors were dissolved in DMSO at 40 mg/ml or sterile water at 2 mg/ml, then dilutions were made in medium. The dilutions were added to micro-titer plates in 100 μl/well aliquots so that the high drug concentration for each screen was 100 μg/ml after the addition of cells to the well.
Susceptible MT-2 and CEM cells were grown and the cell population determined by a trypan blue viable cell count. The desired total number of cells were placed in a sterile, disposable 50 ml conical centrifuge tube and virus was added to give an MOI (Multiplicity of Infection) of 0.03 TCID50 /cell (Tissue Culture Infectious Dose) on MT-2 cells and approximately 0.12 TCID50 /cell on CEM cells. Fresh medium was added to adjust the cell density to 1×10^5 cells/ml, then the virus-cell suspension was incubated at 37° C. for 1 to 2 hours until plating. Uninfected controls cell were prepared in the same manner but without the addition of virus. Infected and uninfected cells were added to plates in 100 μl/well aliquots to give a starting cell number of 1×10^4 cells/well. The plates were incubated for seven days in a humidified atmosphere of 5% CO2 in air.
Reagents for colorimetric evaluation of cell viability were prepared by mixing the tetrazolium reagent, XTT, and phenazine methosulfate (PMS) to final concentrations of 200 μg/ml and 0.02 mM, respectively. Fifty microliters of the XTT-PMS solution was added to each well of the microtiter plates, then the plates were incubated in the CO2 incubator for another four hours. The lids were removed from the plates and replaced with adhesive plate sealers. The plates were read with the sealers in place in a Vmax Plate Reader® at 450 nm and 650 nm. The cytopathic effect (CPE) and percentage of cell viability were then calculated.
The activity and cytotoxicity of several other peptides were also assayed in CEM cells using the same procedure as described above. These assays also included toxicity and activity levels of both 25% and 50%.

[2] = system: MLV; assay: MLV XC Plaque Reduction Assay - Virus Yield; format: cell-based, Murine Leukemia Virus
Method: (§1) About 3 to 5×10^3 SC-1 cells (available from the American Type Culture Collection, Rockville, Md. under the accession number ATCC CRL-1404) per well of a 96-well microtiter plate were seeded in minimal essential medium supplemented with 5% fetal bovine serum, penicillin (150 U/ml), Streptomycin (150 μg/ml) and polybrene (2 μg/ml), then infected with Mo-MuLV (Multiplicity of Infection=10 PFU/cell) the next day. The virus was allowed to adsorb to the cells for 1 hour, then medium containing serial dilutions of P-7, P-9 or medium alone was added to the cells. Pepstatin A ([…]-Val-Val-Statine-Ala-Statine) and AZT (3'-Azido-3'-deoxythymidine) were also added as controls. After incubation for 5 days (when cells were confluent) the SC-1 cells were UV irradiated for 10 seconds and 5 to 8×10^4 XC cells (ATCC CCL-165) per well were added. Generally, about two additional days of incubation were required to obtain full virus-induced cytopathic effect.
The assay described above was also preferred to determine the virus yield. In this experiment, the supernatents were removed from the SC-1 cells four days after infection and tested for MLV titers, using the XC-plaque assay as previously described.

[3] = system: Mo-MuLV; assay: Moloney Murine Leukemia Virus Assay, CPE inhibition in SC-1/XC cells; format: cell-based; design: key: 4+(>90%); 3+(>60%); 2+(>40%); 1+(>20%); -(Negative)
Method: as §1

SMILES: CC(=O)N[C@@H](Cc1ccc(O)cc1)C(=O)N1CCC[C@H]1C(=O)N[C@@H](Cc1ccccc1)C(=O)N[C@H](C(=O)N[C@@H](CC(C)C)[C@@H](O)CC(=O)N[C@@H](CC(C)C)C(=O)N[C@@H](Cc1ccccc1)C(N)=O)C(C)C [P-5, Ac Tyr Pro Phe Val Statine Leu Phe NH2] (Ac-YPFV[Sta]LF-NH2)
IC25 (Table V) [1]: > 100 µg/mL | TC50 (concentration that reduced cell viability by 50%) [1]: > 100 µg/mL

SMILES: CC(C)CC(=O)N[C@H](C(=O)N[C@H](C(=O)N[C@@H](CC(C)C)[C@@H](O)CC(=O)N[C@@H](C)C(=O)N[C@@H](CC(C)C)[C@@H](O)CC(=O)O)C(C)C)C(C)C [Pepstatin A, Isovaline-Val-Val-Statine-Ala-Statine] (Isovaleryl-VV[Sta]A[Sta]-OH)
% Inhibition (virus yield) ([2]; 25 μg/ml): 52% | Yield ([2]; 25 μg/ml): 9.0 × 10^4 PFU/ML | % Inhibition (virus yield) ([2]; 50 μg/ml): 94% | Yield ([2]; 50 μg/ml, supernatants four days after infection): 1.2 × 10^4 PFU/ML | CPE inhibition score ([3]; 1.56 μg/ml): - | CPE inhibition score ([3]; 3.12 μg/ml): - | CPE inhibition score ([3]; 6.25 μg/ml): - | CPE inhibition score ([3]; 12.5 μg/ml): - | CPE inhibition score ([3]; 25 μg/ml): - | CPE inhibition score ([3]; 50 μg/ml): -

The next lines start with results.

IC25 (Table V) [1]: 49 µg/mL (≈ 48.7 µM)
SMILES: CC(=O)N[C@@H](Cc1c[nH]c2ccccc12)C(=O)N1CCC[C@H]1C(=O)N[C@@H](Cc1ccccc1)C(=O)N[C@H](C(=O)N[C@@H](CC(C)C)[C@@H](O)CC(=O)N[C@@H](CC(C)C)C(=O)N[C@@H](Cc1ccccc1)C(N)=O)C(C)C [P-8, Ac Trp Pro Phe Val Statine Leu Phe NH2] (Ac-WPFV[Sta]LF-NH2)
TC50 (concentration that reduced cell viability by 50%) [1]: 66 µg/mL (≈ 65.6 µM)

IC25 (Table V) [1]: > 100 µg/mL
SMILES: COc1ccc(C[C@H](NC(C)=O)C(=O)N2CCC[C@H]2C(=O)N[C@@H](Cc2ccccc2)C(=O)N[C@H](C(=O)N[C@@H](CC(C)C)[C@@H](O)CC(=O)N[C@@H](CC(C)C)C(=O)N[C@@H](Cc2ccccc2)C(N)=O)C(C)C)cc1 [P-9, Ac YOM Pro Phe Val Statine Leu Phe NH2] (Ac-Y(Me)PFV[Sta]LF-NH2)
TC50 (concentration that reduced cell viability by 50%) [1]: > 100 µg/mL

IC25 (Table V) [1]: 49 µg/mL (≈ 50.7 µM)
SMILES: CC(=O)N[C@@H](Cc1ccccc1)C(=O)N1CCC[C@H]1C(=O)N[C@@H](Cc1ccccc1)C(=O)N[C@H](C(=O)N[C@@H](CC(C)C)[C@@H](O)CC(=O)N[C@@H](CC(C)C)C(=O)N[C@@H](Cc1ccccc1)C(N)=O)C(C)C [P-10, Ac Phe Pro Phe Val Statine Leu Phe NH2] (Ac-FPFV[Sta]LF-NH2)
TC50 (concentration that reduced cell viability by 50%) [1]: 55 µg/mL (≈ 56.9 µM)
